Measurements reported in EP4255430B1, “8-HYDROX[…] PROTEASE INHIBITORS FOR USE IN THE PREVENTION AND/OR TREATMENT OF A CORONA VIRUS DISEASE” (Univerza v Ljubljani, priority 2020, dated 2022).
pEC50: −log10 of the molar value.

System: SARS-CoV-2
Experiment: High Content Assay: antiviral activity against SARS-CoV-2 in infected Huh7-hACE2 cells (Spike immunofluorescence, infection ratio)
Conditions: for EC50: treatment condition not restated in the sentence (follows the pre-treated values); for EC50 / EC90 / pEC50: Huh7-hACE2 cells, 0.1 MOI, 20 h; for % of inhibition reached (maximal), based on infection ratio values: within tested concentration range, normalized to 50 µM hydroxychloroquine = 100%; for activity against SARS-CoV-2 in Huh7-hACE2 cells (comparison between inhibitors): qualitative ranking; for EC90: read-out: EC90, the effective concentration capable to inhibit 90% of infection, follows the pre-treated values; for pEC50: pre-treated conditions (compounds added 3 hours prior infection)

SMILES | EC50 | % of inhibition reached (maximal), based on infection ratio values [%] | activity against SARS-CoV-2 in Huh7-hACE2 cells (comparison between inhibitors) | EC90 [µM] | pEC50
CC(C)C[C@H](NC(=O)[C@H]1O[C@@H]1C(=O)O)C(=O)NCCCCN=C(N)N (relative stereo) [Compound E64] | higher concentrations | < 100 |  |  | 
CN(C)C(=O)[C@H](Cc1ccccc1)NC(=O)C1OC1C(=O)NCCc1ccccn1 (stereo in doubt) [CLIK 148, N-{L-3-trans-[2-(pyridin-2-yl)ethylcarbamoyl]-oxirane-2-carbonyl}-L-Phe dimethylamide] | higher concentrations | < 100 |  |  | 
CC1CCN(Cc2cc([N+](=O)[O-])c3cccnc3c2O)CC1 [Compound 3, 7-[(4-methylpiperidin-1yl)methyl]-5-nitroquinolin-8-ol] |  | 100 | stronger effect than CLIK 148, but weaker than Nitroxoline and Compound 17 | 10 | 
N#CCNCc1cc([N+](=O)[O-])c2cccnc2c1O [Compound 17, 2-{[(8-hydroxy-5-nitroquinoline-7-yl)methyl]amino}-acetonitrile] |  | 100 | highest activity | 3.3 | 5.72
CCOC(=O)[C@H]1O[C@@H]1C(=O)N[C@@H](CC(C)C)C(=O)NCCC(C)C [Compound E64d, (2S,3S)-trans-Epoxysuccinyl-L-leucylamido-3-methylbutane ethyl ester] |  | < 100 |  |  | 
O=[N+]([O-])c1ccc(O)c2ncccc12 [Nitroxoline, 5-nitro-8-hydroxyquinoline] |  | 100 | highest activity | 7.9 | 5.72
